From US20050197364A1, “Amide compounds as ion channel ligands and uses thereof” (priority 2003, published 2005)

Each compound was assayed on VR1 receptor (assay: High throughput calcium imaging assay (Fura2, Flex Station) of VR1 antagonists, pH 5.1 stimulus). Details: 1 uM compound; inhibition of calcium ion influx induced by capsaicin stimulation.
Assay type: cell-based
Procedure: Therefore the functional activity of compounds at the VR1 receptor may be determined by measuring changes in intracellular calcium levels in 293 cells expressing capsaicin-insensitive VR1 receptor variants. A dual wavelength ratiometric dye, Fura2, was used as an indicator of relative levels of calcium ions in a 96 well format using a bench top scanning fluorometer with integrated fluidics and temperature control (Flex Station, Molecular Devices).
293 cells were grown on PDL coated 96-well black-walled plates, in the presence of a DMEM medium containing 5% Penstrep, 5% Glutamax, 200 ug/mL Hygromycin, 5 μg/mL Blasticide and 10% heat inactivated FBS. Prior to assay, the cells were loaded with 5 μg/mL Fura2 in normal saline solution at 37° C. for 40 minutes. Cells were then washed with normal saline to remove the dye.
The assay consists of two stages; a pre-treatment phase followed by a treatment phase.
50 μl of a compound solution was added to the cells (Pre-treatment). Immediately following, 50 μl of the test compound in a saline solution at pH 5.1 was added. Fura2 was excited at 340 and 380 nM to indicate relative calcium concentration. Changes in wavelength measurements were made throughout the course of the experiment in 4 second intervals over a period of 3 minutes. Responses were measured as peak fluorescence ratio after test compound addition minus baseline fluorescence ratio prior to pre-treatment and were calculated using SoftMaxPro softwareData were expressed as percentage inhibition calculated using Excel as follows: [formula]

**Q.** How did the “% Inhibition @ 1 uM” value turn out when `O=C(Nc1ccc2cc[nH]c2c1)c1ccc(-c2ncccc2Cl)cn1` [Compound 340] was run?
**A.** + + + + (“+ + + +” compound exhibited 75% or greater inhibition of calcium ion influx induced by capsaicin stimulation.)

**Q.** How did the “% Inhibition @ 1 uM” value turn out when `COc1cc(C(=O)Nc2ccc(Cl)c(C(F)(F)F)c2)ccc1-c1ncccc1Cl` [Compound 214] was run?
**A.** + (“+” compound exhibited 0-25% inhibition of calcium ion influx induced by capsaicin stimulation.)

**Q.** For `O=C(Nc1ccc2c(c1)OCO2)c1ccc(-c2ncccc2Cl)cc1` [Compound 34], which “% Inhibition @ 1 uM” value is on record?
**A.** + (compound exhibited 0-25% inhibition of calcium ion influx induced by capsaicin stimulation)

**Q.** For `O=C(Nc1cc[nH]n1)c1ccc(-c2ncccc2Cl)cc1` [Compound 9], which “% Inhibition @ 1 uM” value is on record?
**A.** + (compound exhibited 0-25% inhibition of calcium ion influx induced by capsaicin stimulation)

**Q.** For `O=C(Nc1ccc(F)c(F)c1)c1ccc(-c2ncccc2Cl)cn1` [Compound 346], which “% Inhibition @ 1 uM” value is on record?
**A.** + + + + (“+ + + +” compound exhibited 75% or greater inhibition of calcium ion influx induced by capsaicin stimulation.)

**Q.** With `O=C(Nc1ccc(N2CCNCC2)cc1)c1ccc(-c2ncccc2Cl)cc1` [Compound 45] as the compound, how does the “% Inhibition @ 1 uM” value read?
**A.** + (compound exhibited 0-25% inhibition of calcium ion influx induced by capsaicin stimulation)

**Q.** `O=C(Nc1ccccc1CCO)c1ccc(-c2ncccc2Cl)cc1` [Compound 23] was tested. Which “% Inhibition @ 1 uM” value did it give?
**A.** + + + (compound exhibited 50-75% inhibition of calcium ion influx induced by capsaicin stimulation)

**Q.** For `COc1cc(C(=O)Nc2cccnc2)ccc1-c1ncccc1Cl` [Compound 219], which “% Inhibition @ 1 uM” value is on record?
**A.** + (“+” compound exhibited 0-25% inhibition of calcium ion influx induced by capsaicin stimulation.)

**Q.** For `COc1cc(C(=O)Nc2cc(C)cc(C)n2)ccc1-c1ncccc1Cl` [Compound 217], which “% Inhibition @ 1 uM” value is on record?
**A.** + (“+” compound exhibited 0-25% inhibition of calcium ion influx induced by capsaicin stimulation.)

**Q.** Which “% Inhibition @ 1 uM” value does the source give for `COc1cc(C(=O)Nc2ccc(Cl)c(C(=O)O)c2)ccc1-c1ncccc1Cl` [Compound 242] here?
**A.** + + + + (“+ + + +” compound exhibited 75% or greater inhibition of calcium ion influx induced by capsaicin stimulation.)

**Q.** How did the “% Inhibition @ 1 uM” value turn out when `O=C(Nc1ccncc1)c1ccc(-c2ncccc2Cl)c(F)c1` [Compound 140] was run?
**A.** + + + + (compound exhibited 75% or greater inhibition of calcium ion influx induced by capsaicin stimulation)

**Q.** For `COc1cc(C(=O)Nc2ccc3ncccc3c2)ccc1-c1ncccc1Cl` [Compound 233], which “% Inhibition @ 1 uM” value is on record?
**A.** + + + + (“+ + + +” compound exhibited 75% or greater inhibition of calcium ion influx induced by capsaicin stimulation.)

**Q.** For `COc1cc(C(=O)Nc2ccc(N3CCNCC3)c(Cl)c2)ccc1-c1ncccc1Cl` [Compound 259], which “% Inhibition @ 1 uM” value is on record?
**A.** + (“+” compound exhibited 0-25% inhibition of calcium ion influx induced by capsaicin stimulation.)

**Q.** With `Cc1cc(NC(=O)c2ccc(-c3ncccc3Cl)cn2)nc(C)n1` [Compound 326] as the compound, how does the “% Inhibition @ 1 uM” value read?
**A.** + (“+” compound exhibited 0-25% inhibition of calcium ion influx induced by capsaicin stimulation.)

**Q.** Which “% Inhibition @ 1 uM” value does the source give for `CCOC(=O)c1cccc(NC(=O)c2ccc(-c3ncccc3Cl)cc2)c1` [Compound 269] here?
**A.** + (“+” compound exhibited 0-25% inhibition of calcium ion influx induced by capsaicin stimulation.)

**Q.** How did the “% Inhibition @ 1 uM” value turn out when `COc1cc(C(=O)Nc2ccc(OC)c(C(F)(F)F)c2)ccc1-c1ncccc1Cl` [Compound 258] was run?
**A.** + + (“+ +” compound exhibited 25-50% inhibition of calcium ion influx induced by capsaicin stimulation.)

**Q.** Which “% Inhibition @ 1 uM” value does the source give for `O=C(Nc1nccs1)c1ccc(-c2ncccc2Cl)cc1` [Compound 38] here?
**A.** + (compound exhibited 0-25% inhibition of calcium ion influx induced by capsaicin stimulation)

**Q.** `O=C(Nc1ccncc1)c1ccc(-c2ncccc2Cl)cc1F` [Compound 62] was tested. Which “% Inhibition @ 1 uM” value did it give?
**A.** + (compound exhibited 0-25% inhibition of calcium ion influx induced by capsaicin stimulation)

**Q.** Which “% Inhibition @ 1 uM” value does the source give for `CCCc1ccccc1NC(=O)c1ccc(-c2ncccc2Cl)c(F)c1` [Compound 118] here?
**A.** + (compound exhibited 0-25% inhibition of calcium ion influx induced by capsaicin stimulation)

**Q.** Which “% Inhibition @ 1 uM” value does the source give for `O=C(Nc1ccc(Cl)nc1)c1ccc(-c2ncccc2Cl)cc1` [Compound 31] here?
**A.** + (compound exhibited 0-25% inhibition of calcium ion influx induced by capsaicin stimulation)

**Q.** For `Cc1ccnc(NC(=O)c2ccc(-c3ncccc3Cl)c(F)c2)c1` [Compound 145], which “% Inhibition @ 1 uM” value is on record?
**A.** + + + + (compound exhibited 75% or greater inhibition of calcium ion influx induced by capsaicin stimulation)

**Q.** How did the “% Inhibition @ 1 uM” value turn out when `O=C(Nc1ccc(C2CCCCC2)cc1)c1ccc(-c2ncccc2Cl)cc1` [Compound 27] was run?
**A.** + + + + (compound exhibited 75% or greater inhibition of calcium ion influx induced by capsaicin stimulation)

**Q.** `COc1cc(C(=O)Nc2cc(C)nc(C)n2)ccc1-c1ncccc1Cl` [Compound 232] was tested. Which “% Inhibition @ 1 uM” value did it give?
**A.** + (“+” compound exhibited 0-25% inhibition of calcium ion influx induced by capsaicin stimulation.)

**Q.** For `COc1cc(C(=O)Nc2ccc(Br)cn2)ccc1-c1ncccc1Cl` [Compound 226], which “% Inhibition @ 1 uM” value is on record?
**A.** + (“+” compound exhibited 0-25% inhibition of calcium ion influx induced by capsaicin stimulation.)

**Q.** With `O=C(Nc1ccc2ccccc2c1)c1ccc(-c2ncccc2Cl)c(F)c1` [Compound 160] as the compound, how does the “% Inhibition @ 1 uM” value read?
**A.** + + + + (compound exhibited 75% or greater inhibition of calcium ion influx induced by capsaicin stimulation)

**Q.** `O=C(Nc1ccccc1Cl)c1ccc(-c2ncccc2Cl)cn1` [Compound 297] was tested. Which “% Inhibition @ 1 uM” value did it give?
**A.** + + + + (“+ + + +” compound exhibited 75% or greater inhibition of calcium ion influx induced by capsaicin stimulation.)

**Q.** Which “% Inhibition @ 1 uM” value does the source give for `O=C(Nc1ccc(F)c(F)c1)c1ccc(-c2ncccc2Cl)cc1` [Compound 279] here?
**A.** + (“+” compound exhibited 0-25% inhibition of calcium ion influx induced by capsaicin stimulation.)

**Q.** Which “% Inhibition @ 1 uM” value does the source give for `O=C(Nc1ccc2ccccc2c1)c1ccc(-c2ncccc2Cl)cc1F` [Compound 109] here?
**A.** + + (compound exhibited 25-50% inhibition of calcium ion influx induced by capsaicin stimulation)

**Q.** With `COc1cc(C(=O)Nc2cccc(Cl)c2Cl)ccc1-c1ncccc1Cl` [Compound 199] as the compound, how does the “% Inhibition @ 1 uM” value read?
**A.** + + + + (“+ + + +” compound exhibited 75% or greater inhibition of calcium ion influx induced by capsaicin stimulation.)

**Q.** `CCCCc1ccc(NC(=O)c2ccc(-c3ncccc3Cl)cn2)cc1` [Compound 302] was tested. Which “% Inhibition @ 1 uM” value did it give?
**A.** + + + (“+ + +” compound exhibited 50-75% inhibition of calcium ion influx induced by capsaicin stimulation.)

**Q.** For `O=C(Nc1ccc2ncccc2c1)c1ccc(-c2ncccc2Cl)c(F)c1` [Compound 156], which “% Inhibition @ 1 uM” value is on record?
**A.** + + + + (compound exhibited 75% or greater inhibition of calcium ion influx induced by capsaicin stimulation)

**Q.** For `O=C(Nc1ccc(Br)cn1)c1ccc(-c2ncccc2Cl)cc1` [Compound 49], which “% Inhibition @ 1 uM” value is on record?
**A.** + + (compound exhibited 25-50% inhibition of calcium ion influx induced by capsaicin stimulation)

**Q.** For `COc1cc(C(=O)Nc2ccccc2)ccc1-c1ncccc1Cl` [Compound 189], which “% Inhibition @ 1 uM” value is on record?
**A.** + (compound exhibited 0-25% inhibition of calcium ion influx induced by capsaicin stimulation)

**Q.** Which “% Inhibition @ 1 uM” value does the source give for `CN(C)c1cccc(NC(=O)c2ccc(-c3ncccc3Cl)cc2)c1` [Compound 43] here?
**A.** + + + + (compound exhibited 75% or greater inhibition of calcium ion influx induced by capsaicin stimulation)
